Laboratory results published in US10849902B2, “Medicament for treating heart failure” (TAKEDA PHARMACEUTICAL COMPANY LIMITED, priority 2015, dated 2020).

Assays:
[1] = tested on: transverse aortic constriction (TAC) model; conditions: Non patent literature 5; cited from earlier work
[2] = drug administered after the cardiac load is given; Non patent literature 6; cited from earlier work
CSQ-Tg mice [3] = test: Improvement effect on left ventricular hypertrophy and lung weight increase in CSQ-Tg mice; format: in vivo; conditions: CSQ-Tg female mice, 5 weeks old, 30 mg/kg body weight/day oral QD for 14 days, n=10; p<0.05 vs vehicle (t-test)
Experimental: (§1) Calsequestrin (CSQ) cardiac specific transgenic mice (CSQ-Tg mice), which were reported in Larry R. Jones et al., J. Clin. Invest. 101: 1385-1393, 1998, were obtained from University of Pennsylvania, breeded in our company and put in use. In tests, using male and female mice, administration of a medicament was started on and after the mice reached 5 weeks old. The animals were raised in the conditions: room temperature: 20 to 26° c., humidity: 40 to 70%, illumination time: 12 hours/day (7:00-19:00) by giving a solid feed (CE-2, manufactured by CLEA Japan, Inc.) and tap water. In the CSQ-Tg mice, as already reported, Ca^2+ intracellular release was suppressed; myocardial contraction declined and cardiac output decreased. Cardiac hypertrophy and heart failure developed.
In this example, the effect of compound A′ in improving left ventricular hypertrophy and lung weight increase caused by heart failure was examined.
Compound A′ was suspended in a 0.5% aqueous methylcellulose solution (10 mL/kg) and orally administered to CSQ-Tg female mice of 5 weeks old with heart failure in a dosage of 30 mg/kg body weight/day once per day (QD) for 14 days (n=10). […] Thereafter, lung weight (Lung), left-ventricle weight (LV) and body weight (BW) were individually measured and were standardized with the BW.

CSQ-Tg mice [4] = test: Atrial weight reduction effect in heart failure model animal (CSQ-Tg mice); format: in vivo; conditions: CSQ-Tg male mice, 5 weeks old, 30 mg/kg body weight/day oral QD for 14 days, n=7; p<0.05 vs vehicle (t-test)
Experimental: as §1
In this example, using CSQ-Tg mice as a heart failure model animal, the atrial weight reduction effect of compound A′ was evaluated.
Compound A′ was suspended (10 mL/kg) in a 0.5% aqueous methylcellulose solution (hereinafter in Examples, sometimes referred to as a “vehicle”) and orally administered to CSQ-Tg male mice of 5 weeks old with heart failure in a dosage of 30 mg/kg body weight/day once per day (QD) for 14 days (n=7). To negative control (vehicle administration group) mice, a 0.5% aqueous methylcellulose solution was administered (n=9). Thereafter, the atrial weight of the mice was measured.

CSQ-Tg mice [5] = test: Effect on survival rate of heart failure model animals (CSQ-Tg mice); format: in vivo; conditions: CSQ-Tg female mice, 5 weeks old, 30 mg/kg body weight/day oral QD for 30 days, n=30; log-rank test p<0.001 vs vehicle
Experimental: as §1
In this example, effect of compound A′ on survival rate of heart failure model animals was examined.
Compound A′ was orally administered to CSQ-Tg female mice (n=30) of 5 weeks old in a dosage of 30 mg/kg body weight/day once per day (QD) for 30 days. To negative control (vehicle administration group) mice, a 0.5% aqueous methylcellulose solution was administered (n=30).

SMILES | Cardiac hypertrophy [1] | Cardiac hypofunction [2] | LV/BW (left-ventricle weight standardized with body weight), average value ± standard deviation (CSQ-Tg mice [3]) | Lung/BW (lung weight standardized with body weight), average value ± standard deviation (CSQ-Tg mice [3]) | Left atrial weight, average value (CSQ-Tg mice [4]) [mg] | Survival rate (Kaplan-Meier, FIG. 1) (CSQ-Tg mice [5])
C[C@@H](N[C@H]1CCCC[C@@H]1NC(=O)c1ccc(Cl)cc1)c1cccc2ccccc12 [Calhex231] | cardiac hypertrophy is improved | cardiac hypofunction is not improved | – | – | – | –
CCc1ccc(C(CC)(CC)NC(=O)c2c(C)nn3c2N[C@@H](c2ccccc2)CC3(C)C)cc1 [Compound A′] | – | – | 7.9 ± 1.0 | 6.8 ± 1.3 | 8.4 | significantly improved
